# Test results from patent publication US6787569B1, “Therapeutic guanidines” (Cambridge NeuroScience, Inc., priority 1994, dated 2004).
# Counter-ions that a name gives are not always drawn.
# Test system: depolarization-induced 3H-glutamate release from brain nerve terminals
# Test: Inhibition of 3H-glutamate release, high [K+] depolarization, rapid superfusion of synaptosomes
# Format: biochemical
# Details: rat brain synaptosomes; for % Inhibition of ^3H-Glu Rel @ 1 μM: 1 μM compound; for % Inhibition of ^3H-Glu Rel @ 0.3 μM: 0.3 μM compound; for % Inhibition of ^3H-Glu Rel @ 0.1 μM: 0.1 μM compound
SMILES,% Inhibition of ^3H-Glu Rel @ 1 μM [%],% Inhibition of ^3H-Glu Rel @ 0.3 μM [%],further results
"CS(=O)(=O)O.N=C(Nc1ccc2c3c(cccc13)CC2)N1CCCc2ccccc21 [Example 7, N-(5-Acenaphthyl)-N′-(1,2,3,4-tetrahydroquinolinyl)guanidine.mesylate]",20,–,% Inhibition of ^3H-Glu Rel @ 3 μM (3 μM compound): 16%
"Br.N=C(Nc1cccc(-c2ccccc2)c1)Nc1cccc(-c2ccccc2)c1 [Example 30, N,N′-Bis(3-biphenyl)guanidine.HBr]",25,–,–
"Br.CC(C)(C)c1cccc(NC(=N)Nc2cccc(C(C)(C)C)c2)c1 [Example 31, N,N′-Di-(3-tert-butylphenyl)guanidine.HBr]",24,–,–
"Br.CCC(C)c1cccc(NC(=N)Nc2cccc(C(C)CC)c2)c1 (stereo not drawn) [Example 34, N,N′-Bis-(3-sec-butylphenyl)guanidine.HBr]",63,–,–
"Br.CN(C(=N)Nc1ccc(C(C)(C)C)cc1)c1ccc(C(C)(C)C)cc1 [Example 35, N,N′-Bis(4-tert-butylphenyl)-N-methylguanidine.HBr]",61,–,–
"Br.CN(C(=N)N(C)c1ccc(C(C)(C)C)cc1)c1ccc(C(C)(C)C)cc1 [Example 36, N,N′-Bis(4-tert-butylphenyl)-N,N′-methylguanidine.HBr]",–,–,% Inhibition of ^3H-Glu Rel @ 1 μM (1 µM): 67%
"CC(Cc1ccc(Cl)cc1)NC(=N)Nc1ccc2c3c(cccc13)CC2.Cl (stereo not drawn) [Example 40, N-(5-Acenaphthyl)-N′-(1-methyl-2-(4-chlorophenyl)ethyl)guanidine.HCl]",64,46,–
"Cl.N=C(Nc1ccc2c3c(cccc13)CC2)NC(Cc1ccccc1)c1ccccc1 (stereo not drawn) [Example 41, N-(5-Acenaphthyl)-N′-(1,2-diphenylethyl)guanidine.HCl]",52,–,–
"CCCCCN(C(=N)Nc1ccc(C(C)CC)cc1)c1ccc(C(C)CC)cc1.Cl (stereo not drawn) [Example 46, N,N′-(sec-Butylphenyl)-N′-(n-pentyl)guanidine.HCl]",100,65,–
"CC(C)(C)c1ccc(CN(C(=N)N)c2cccc3ccccc23)cc1.Cl [Example 47, N-(1-Naphthyl)-N-4(tert-butylbenzyl)guanidine.HCl]",40,–,–
"Cl.N=C(N)N(Cc1cccc(Oc2ccccc2)c1)c1ccc2c3c(cccc13)CC2 [Example 53, N-(5-Acenaphthyl)-N-(3-phenoxybenzyl)guanidine.HCl]",37,–,–
"Cl.N=C(N)N(Cc1ccc(I)cc1)c1ccc2c3c(cccc13)CC2 [Example 58, N-(5-Acenaphthyl)-N-(4-iodobenzyl)guanidine.HCl]",43,–,–
"N=C(N)N(Cc1ccc(OC(F)(F)F)cc1)c1ccc2c3c(cccc13)CC2 [Example 59, N-(5-Acenaphthyl)-N-(4-trifluaromethoxybenzyl)guanidine.HCl]",44,–,–
"CCC(C)c1cccc(N(Cc2ccc(C(C)(C)C)cc2)C(=N)N)c1.Cl (stereo not drawn) [Example 62, N-(3-sec-Butylphenyl)-N-(4-tert-butylbenzyl)guanidine.HCl]",22,–,–
"CC(C)(C)c1ccc(CN(C(=N)N)c2cccc(C(C)(C)C)c2)cc1.Cl [Example 63, N-(3-tert-Butylphenyl)-N-(4-tert-butylbenzyl)guanidine.HCl]",40,–,–
"CCCCCOc1cccc(N(Cc2ccc(C(C)(C)C)cc2)C(=N)N)c1.Cl [Example 64, N-(3-Pentoxyphenyl)-N-(4-tert-butylbenzyl)guanidine.HCl]",41,–,–
"Cl.N=C(N)N(Cc1ccc(OCc2ccccc2)cc1)c1ccc2c3c(cccc13)CC2 [Example 65, N-(5-Acenaphthyl)-N-(4-benzyloxybenzyl)guanidine.HCl]",42,–,–
"CCC(C)c1ccc(N(Cc2ccc(OCc3ccccc3)cc2)C(=N)N)cc1.Cl (stereo not drawn) [Example 66, N-(4-sec-Butylphenyl)-N-(4-benzyloxybenzyl)guanidine.HCl]",54,–,–
"Cl.N=C(N)N(Cc1ccc(OCc2ccccc2)cc1)c1ccc(OCc2ccccc2)cc1 [Example 67, N-(4-Benzyloxyphenyl)-N-(4-benzyloxybenzyl)guanidine.HCl]",36,–,–
"Cl.N=C(N)N(Cc1cccc(OCc2ccccc2)c1)c1ccc2c3c(cccc13)CC2 [Example 68, N-(5-Acenaphthyl)-N-(3-benzyloxybenzyl)guanidine.HCl]",76,–,–
"CCC(C)c1ccc(N(Cc2ccc(C(C)(C)C)cc2)C(=N)NN2CCOCC2)cc1.Cl (stereo not drawn) [Example 75, N-(4-sec-Butylphenyl)-N-(4-tert-butylbenzyl)-N′-(4-morpholinyl)guanidine.HCl]",–,42,–

SMILES,% Inhibition of ^3H-Glu Rel @ 1 μM [%],% Inhibition of ^3H-Glu Rel @ 0.3 μM [%],further results
"CCCCOc1ccc(N(Cc2ccc(C(C)(C)C)cc2)C(=N)NC2CCNCC2)cc1.Cl [Example 77, N-(4-Butoxyphenyl)-N-(4-tert-butylbenzyl)-N′-(4-piperidinyl)guanidine.HCl]",–,44,–
CCC(C)c1ccc(N(Cc2ccc(C(C)(C)C)cc2)C(=N)N2CCC(Cc3ccccc3)CC2)cc1.CS(=O)(=O)O (stereo not drawn) [Example 78],–,22,–
CCC(C)c1ccc(N(Cc2ccc(C(C)(C)C)cc2)C(=N)N2CCc3ccccc3C2)cc1.Cl (stereo not drawn) [Example 80],–,68,–
"CCC(C)c1ccc(N(Cc2ccc(C(C)(C)C)cc2)C(=N)NN2C(C)COCC2C)cc1.Cl (stereo not drawn) [Example 82, N-(4-sec-Butylphenyl)-N-(4-tert-butylbenzyl)-N′-(3,5-dimethyl-4-morpholinyl)guanidine.HCl]",–,60,–
"CCC(C)c1ccc(N(C)C(=N)N(Cc2ccc(C(C)(C)C)cc2)c2ccc(C(C)(C)C)cc2)cc1.Cl (stereo not drawn) [Example 83, N-(4-tert-Butylphenyl)-N-(4-tert-butylbenzyl)-N′-(4-sec-butylphenyl)-N′-(methyl)guanidine.HCl]",63,31,–
"CCC(C)c1ccc(N(C)C(=N)N(Cc2ccc(C(C)(C)C)cc2)c2ccc(C(C)CC)cc2)cc1.Cl (stereo not drawn) [Example 84, N-(4-sec-Butylphenyl)-N-(4-tert-butylbenzyl)-N′-(4-sec-butylphenyl)-N′-(methyl)guanidine.HCl]",37,–,–
"CCC(C)c1ccc(N(Cc2ccc(C(C)(C)C)cc2)C(=N)Nc2ccccc2)cc1.Cl (stereo not drawn) [Example 85, N-(4-sec-Butylphenyl)-N-(4-tert-butylbenzyl)-N′-(phenyl)guanidine.HCl]",100,55,–
"CCC(C)c1ccc(N(Cc2ccc(C(C)(C)C)cc2)C(=N)Nc2ccc(Cl)cc2)cc1.Cl (stereo not drawn) [Example 86, N-(4-sec-Butylphenyl)-N-(4-tert-butylbenzyl)-N′-(4-chlorophenyl)guanidine.HCl]",–,45,% Inhibition of ^3H-Glu Rel @ 0.1 μM: 16%
"CCCCOc1ccc(N(Cc2ccc(C(C)(C)C)cc2)C(=N)Nc2ccccc2)cc1.Cl [Example 87, N-(4-Butoxylphenyl)-N-(4-tert-butylbenzyl)-N′-(phenyl)guanidine.HCl]",–,36,–
"CCC(C)c1ccc(N(Cc2ccc(C(C)(C)C)cc2)C(=N)N(C)c2ccccc2)cc1.Cl (stereo not drawn) [Example 88, N-(4-sec-Butylphenyl)-N-(4-tert-butylbenzyl)-N′-(phenyl)-N′-methylguanidine.HCl]",–,77,–
"CCC(C)c1ccc(N(Cc2ccc(C(C)(C)C)cc2)C(=N)Nc2ccc(Cl)c(Cl)c2)cc1.Cl (stereo not drawn) [Example 89, N-(4-sec-Butylphenyl)-N-(4-tert-butylbenzyl)-N′-(3,4-dichlorophenyl)guanidine.HCl]",–,21,–
"CCCCCCc1ccc(N(Cc2ccc(C(C)(C)CCC)cc2)C(=N)Nc2ccccc2)cc1.Cl [Example 90, N-(4-Hexylphenyl)-N-(4-tert-hexylbenzyl)-N′-phenylguanidine.HCl]",–,42,–
"CCC(C)c1ccc(N(Cc2ccc(C(C)(C)C)cc2)C(=N)Nc2ccc(OCc3ccccc3)cc2)cc1.CS(=O)(=O)O (stereo not drawn) [Example 91, N-(4-sec-Butylphenyl)-N-(4-tert-butylbenzyl)-N′-(4-benzyloxyphenyl)guanidine.mesylate]",–,49,–
"CC(C)(C)c1ccc(NC(=N)Nc2ccc(OCc3ccccc3)cc2)cc1.Cl [Example 93, N-(4-Benzyloxyphenyl)-N′-(4-tert-butylphenyl)guanidine.HCl]",91,48,–
"CN(C(=N)Nc1ccc(C(C)(C)C)cc1)c1ccc(OCc2ccccc2)cc1.CS(=O)(=O)O [Example 95, N-Methyl-N-4-benzyloxyphenyl-N′-(4-tert-butylphenyl)guanidin.mesylat]",100,44,–
"CCCCCCc1ccc(NC(=N)Nc2ccc(CCCCCC)cc2)cc1.CS(=O)(=O)O [Example 96, N,N′-Bis-(4-Hexylphenyl)guanidine.mesylate]",–,54,% Inhibition of ^3H-Glu Rel @ 0.1 μM: 54%
"CCOc1ccc(Cc2cccc(CCNC(=N)Nc3ccc(C(C)(C)C)cc3)c2)cc1.CS(=O)(=O)O [Example 97, N-(3-(1-(4′-Ethoxy)benzyl)phenethyl)-N′-(4-tert-butylphenyl)guanidine.mesylate]",–,31,–
"CN(C(=N)Nc1ccc(OCc2ccccc2)cc1)c1ccc(C(C)(C)C)cc1.CS(=O)(=O)O [Example 98, N-(4-Benzyloxyphenyl)-N′-methyl-N′-(4-tert-butylphenyl)guanidine.mesylate]",–,28,–
"CC(C)(C)c1ccc(COc2cccc(NC(=N)Nc3ccc(C(C)(C)C)cc3)c2)cc1.CS(=O)(=O)O [Example 99, N-(3-(4-tert-Butylbenzyloxy)phenyl)-N′-(4-tert-butylphenyl)guanidine.mesylate]",–,20,–
"CCCC(Cc1ccccc1)c1cccc(NC(=N)Nc2ccc(C(C)(C)C)cc2)c1.CS(=O)(=O)O (stereo not drawn) [Example 100, N-(3-(1′-Benzylbutyl)phenyl)-N′-(4-tert-butylphenyl)guanidine.mesylate]",–,20,–
"CCCCc1ccc(NC(=N)N(C)c2ccc(CCCC)cc2)cc1.Cl [Example 101, N,N′-Bis-(4-butylphenyl)-N-methylguanidine.HCl]",–,35,–
